PubChem BioAssay AID330 (DTP/NCI, 2004)
“And” between values parts separate entries of the source, which are not always exact repeats. Equal values may be shown once. Toxic doses and inconclusive results are not listed. Rule for the calls: active = survival T/C of 150% or more; inactive = T/C below 125% in these data.

Test system: P388 leukemia ip, CD2F1 mice, survival T/C
Experiment: NCI In Vivo Anticancer Drug Screen. Data for tumor model P388 Leukemia (intraperitoneal) in CD2F1 (CDF1) mice
Conditions: endpoint: median survival time, higher = longer survival
In short: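 Mice carrying the transplanted tumor received test compound or vehicle. Survival was recorded in each group, and the value is the treated-group measurement divided by that of the vehicle-treated control group.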

[1] = dose: 50.0 mg/kg/injection, schedule: Q01DX009 (ip), vehicle: saline
[2] = dose: 100.0 mg/kg/injection, schedule: Q01DX009 (ip), vehicle: saline
[3] = dose: 25.0 mg/kg/injection, schedule: Q01DX009 (ip), vehicle: saline
[4] = dose: 50.0 mg/kg/injection, schedule: Q01DX005 (ip), vehicle: saline with Tween-80
[5] = dose: 100.0 mg/kg/injection, schedule: Q01DX005 (ip), vehicle: saline with Tween-80
[6] = dose: 200.0 mg/kg/injection, schedule: Q01DX005 (ip), vehicle: saline with Tween-80
[7] = dose: 50.0 mg/kg/injection, schedule: Q01DX005 (ip), vehicle: Klucel (hydroxypropylcellulose) (HPC)
[8] = dose: 100.0 mg/kg/injection, schedule: Q01DX005 (ip), vehicle: Klucel (hydroxypropylcellulose) (HPC)
[9] = dose: 200.0 mg/kg/injection, schedule: Q01DX005 (ip), vehicle: Klucel (hydroxypropylcellulose) (HPC)
[10] = dose: 25.0 mg/kg/injection, schedule: Q01DX005 (ip), vehicle: Klucel (hydroxypropylcellulose) (HPC)
[11] = dose: 50.0 mg/kg/injection, schedule: Q01DX009 (ip), vehicle: Klucel (hydroxypropylcellulose) (HPC)
[12] = dose: 100.0 mg/kg/injection, schedule: Q01DX009 (ip), vehicle: Klucel (hydroxypropylcellulose) (HPC)
[13] = dose: 200.0 mg/kg/injection, schedule: Q01DX009 (ip), vehicle: Klucel (hydroxypropylcellulose) (HPC)

Measured: T/C

CC(=NC(C)C)N1CCCCC1
inactive: [1] 101 % of control | [2] 101 % of control

CCOC(=O)C1=C(C#N)C2(CCC(OCc3ccccc3)CC2)C(=O)O1 (stereo not drawn)
inactive: dose: 25.0 mg/kg/injection, schedule: Q01DX009 (ip), vehicle: saline with Tween-80 90 % of control | [3] 104 % of control | dose: 50.0 mg/kg/injection, schedule: Q01DX009 (ip), vehicle: saline with Tween-80 92 % of control | [1] 104 % of control and 106 % of control and 100 % of control | dose: 100.0 mg/kg/injection, schedule: Q01DX009 (ip), vehicle: saline with Tween-80 119 % of control | [2] 108 % of control and 116 % of control and 102 % of control | dose: 200.0 mg/kg/injection, schedule: Q01DX009 (ip), vehicle: saline with Tween-80 123 % of control | dose: 200.0 mg/kg/injection, schedule: Q01DX009 (ip), vehicle: saline 119 % of control and 100 % of control

OC(c1ccccc1)C1(c2ccccc2)CCN(Cc2ccccc2)CC1 (stereo not drawn)
inactive: [4] 100 % of control | [5] 100 % of control | [6] 96 % of control

O=C1c2ccccc2C(=O)c2c(NCC3CCCN4CCCCC34)cccc21 (stereo not drawn)
inactive: [7] 100 % of control | [8] 98 % of control | [9] 100 % of control

COc1ccc(/C=N/n2cnc3c(sc4ccccc43)c2=O)cc1
inactive: dose: 12.5 mg/kg/injection, schedule: Q01DX005 (ip), vehicle: Klucel (hydroxypropylcellulose) (HPC) 99 % of control | [10] 100 % of control | [7] 87 % of control and 92 % of control | [9] 92 % of control

CN1C(=O)C(n2[nH]c(=O)n(-c3ccccc3)c2=O)C(=O)N(C)C1=O
inactive: [11] 99 % of control | [12] 89 % of control | [13] 103 % of control

c1ccc(N/N=C2/c3ccccc3CC23OC3c2ccccc2)cc1 (stereo not drawn)
inactive: dose: 25.0 mg/kg/injection, schedule: Q01DX009 (ip), vehicle: Klucel (hydroxypropylcellulose) (HPC) 90 % of control | [11] 90 % of control | [12] 88 % of control | [13] 87 % of control | dose: 400.0 mg/kg/injection, schedule: Q01DX009 (ip), vehicle: Klucel (hydroxypropylcellulose) (HPC) 88 % of control

CCN(CC)CCCC(C)Nc1cc(O)c2c(c1O)C(=O)c1ccccc1C2=O (stereo not drawn)
inactive: [4] 102 % of control | [5] 98 % of control | [6] 111 % of control

CN(C)NP(=S)(NN(C)C)Oc1ccccc1
inactive: [4] 117 % of control | [5] 99 % of control

COc1cc([N+](=O)[O-])ccc1Nc1c2ccccc2nc2ccccc12
inactive: [11] 99 % of control | [12] 98 % of control | [13] 90 % of control

O=c1nc2n(CCO)c3ccccc3cc-2c(=O)[nH]1
inactive: dose: 60.0 mg/kg/injection, schedule: Q01DX005 (ip), vehicle: saline 96 % of control | dose: 120.0 mg/kg/injection, schedule: Q01DX005 (ip), vehicle: saline 95 % of control

CC(=O)NC1C(Nc2ccc(S(=O)(=O)Nc3ccnn3-c3ccccc3)cc2)OC(CO)C(O)C1O (stereo not drawn)
inactive: dose: 50.0 mg/kg/injection, schedule: Q01DX005 (ip), vehicle: saline 108 % of control | dose: 100.0 mg/kg/injection, schedule: Q01DX005 (ip), vehicle: saline 100 % of control | dose: 200.0 mg/kg/injection, schedule: Q01DX005 (ip), vehicle: saline 106 % of control

CCN(CC)CCCCCNc1cc(Cl)c(Cl)cc1[N+](=O)[O-]
inactive: dose: 12.5 mg/kg/injection, schedule: Q01DX009 (ip), vehicle: saline 99 % of control | [3] 95 % of control | [1] 107 % of control

CCOC(=O)C1=CNc2c(C#N)cnn2C12C(=O)Oc1ccc(OC)cc12 (stereo not drawn)
inactive: [10] 109 % of control | [7] 105 % of control | [8] 105 % of control | [9] 105 % of control
